Laboratory results: PubChem BioAssay AID256 (DTP/NCI, 2004)
Values joined by “and” are separate entries in the source; they are usually repeats but may differ in a detail not shown here. Identical values can stand only once. Toxic doses and inconclusive results are not listed. Rule for the calls: active = survival T/C of 150% or more; inactive = T/C below 125% in these data.

Tested on: CD2F1 mice, L1210 leukemia ip, survival T/C
Test: NCI In Vivo Anticancer Drug Screen. Data for tumor model L1210 Leukemia (intraperitoneal) in CD2F1 (CDF1) mice
Conditions: endpoint: mean survival time, higher = longer survival
Summary of the method: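 Tumor-bearing mice (transplanted tumor) were split into treated and vehicle control groups, and the measured endpoint of each treated group was divided by that of its vehicle controls.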

[1] = dose: 100.0 mg/kg/injection, schedule: Q01DX001 (ip), vehicle: saline
[2] = dose: 100.0 mg/kg/injection, schedule: Q04DX003 (ip), vehicle: saline
[3] = dose: 200.0 mg/kg/injection, schedule: Q01DX001 (ip), vehicle: saline
[4] = dose: 200.0 mg/kg/injection, schedule: Q04DX003 (ip), vehicle: saline
[5] = dose: 400.0 mg/kg/injection, schedule: Q01DX001 (ip), vehicle: saline
[6] = dose: 400.0 mg/kg/injection, schedule: Q04DX003 (ip), vehicle: saline
[7] = dose: 100.0 mg/kg/injection, schedule: Q04DX003 (ip), vehicle: saline with Tween-80
[8] = dose: 200.0 mg/kg/injection, schedule: Q04DX003 (ip), vehicle: saline with Tween-80
[9] = dose: 25.0 mg/kg/injection, schedule: Q01DX009 (ip), vehicle: saline with Tween-80
[10] = dose: 50.0 mg/kg/injection, schedule: Q01DX009 (ip), vehicle: saline with Tween-80
[11] = dose: 100.0 mg/kg/injection, schedule: Q01DX009 (ip), vehicle: saline with Tween-80
[12] = dose: 12.5 mg/kg/injection, schedule: Q01DX005 (ip), vehicle: distilled water + Tween-80
[13] = dose: 25.0 mg/kg/injection, schedule: Q01DX005 (ip), vehicle: distilled water + Tween-80
[14] = dose: 50.0 mg/kg/injection, schedule: Q01DX005 (ip), vehicle: distilled water + Tween-80
[15] = dose: 100.0 mg/kg/injection, schedule: Q01DX005 (ip), vehicle: distilled water + Tween-80
[16] = dose: 200.0 mg/kg/injection, schedule: Q01DX009 (ip), vehicle: saline with Tween-80
[17] = dose: 400.0 mg/kg/injection, schedule: Q01DX009 (ip), vehicle: saline with Tween-80

Measured: T/C

CC12OC3(C)C4C(=O)OC1C1(C)OC4(C)C3C(=O)OC21
inactive: [1] 106 % of control | [2] 100 % of control | [3] 102 % of control | [4] 102 % of control | [5] 100 % of control | [6] 97 % of control

CO[C@]12[C@@H](COC(N)=O)C3=C(C(=O)C(C)=C(NCc4ccco4)C3=O)N1C[C@@H]1[C@H]2N1C (stereo partly drawn)
inactive: dose: 1.5 mg/kg/injection, schedule: Q01DX001 (ip), vehicle: distilled water + Tween-80 104 % of control | dose: 3.0 mg/kg/injection, schedule: Q01DX001 (ip), vehicle: distilled water + Tween-80 103 % of control and 104 % of control | dose: 6.0 mg/kg/injection, schedule: Q01DX001 (ip), vehicle: distilled water + Tween-80 110 % of control and 111 % of control | dose: 12.0 mg/kg/injection, schedule: Q01DX001 (ip), vehicle: distilled water + Tween-80 122 % of control | dose: 36.0 mg/kg/injection, schedule: Q01DX001 (ip), vehicle: distilled water + Tween-80 121 % of control

COc1cccc(CN2CCCNCC2)c1
inactive: dose: 25.0 mg/kg/injection, schedule: Q01DX005 (ip), vehicle: water 96 % of control | dose: 50.0 mg/kg/injection, schedule: Q01DX005 (ip), vehicle: water 96 % of control | dose: 100.0 mg/kg/injection, schedule: Q01DX005 (ip), vehicle: water 94 % of control

Cc1cc(C2(c3cc(C)c(O)c(C(=O)O)c3)OS(=O)(=O)c3ccccc32)cc(C(=O)O)c1O
inactive: [1] 104 % of control | [3] 98 % of control | [5] 106 % of control

CCOC(=O)N[C@H]1CCc2cc(OC)c(OC)c(OC)c2-c2ccc(SC)c(=O)cc21
inactive: dose: 0.38 mg/kg/injection, schedule: Q01DX009 (ip), vehicle: other 103 % of control | dose: 0.75 mg/kg/injection, schedule: Q01DX009 (ip), vehicle: other 108 % of control | dose: 1.5 mg/kg/injection, schedule: Q01DX009 (ip), vehicle: other 114 % of control

CCCCCCCCCCCCCCCCCC[n+]1cccc(C(=O)c2ccccc2)c1
inactive: dose: 9.38 mg/kg/injection, schedule: Q01DX001 (ip), vehicle: other 100 % of control | dose: 18.75 mg/kg/injection, schedule: Q01DX001 (ip), vehicle: other 108 % of control

O=C(O)c1c(F)c(F)c2c(F)c(F)c(F)c(F)c2c1F
inactive: [7] 93 % of control | [8] 92 % of control

O=C(SCc1ccccc1)c1cccnc1
inactive: dose: 6.25 mg/kg/injection, schedule: Q01DX009 (ip), vehicle: saline 98 % of control | dose: 12.5 mg/kg/injection, schedule: Q01DX009 (ip), vehicle: saline 98 % of control | [9] 94 % of control | dose: 25.0 mg/kg/injection, schedule: Q01DX009 (ip), vehicle: saline 98 % of control | [10] 96 % of control | [11] 92 % of control

COc1cccc(CO)c1Oc1ccc(C)cc1
inactive: [1] 102 % of control | [2] 89 % of control | [3] 105 % of control | [4] 89 % of control | [5] 100 % of control | [6] 89 % of control

O=c1[nH]c2c(ncn2C2OC3COP(=O)(O)OC3C2O)c2nccn12 (stereo not drawn)
inactive: [12] 97 % of control | [13] 97 % of control | [14] 97 % of control | [15] 100 % of control

CCCCCCCCCCCCCCn1cnc2ncnc(Cl)c21
inactive: dose: 6.25 mg/kg/injection, schedule: Q01DX005 (ip), vehicle: distilled water + Tween-80 100 % of control | [12] 100 % of control | [13] 93 % of control | [14] 90 % of control | [15] 91 % of control

CO[C@]12[C@@H](COC(N)=O)C3=C(C(=O)C(C)=C(NCCCO)C3=O)N1C[C@@H]1[C@H]2N1C (stereo partly drawn)
inactive: dose: 1.5 mg/kg/injection, schedule: Q01DX001 (ip), vehicle: water 101 % of control | dose: 3.0 mg/kg/injection, schedule: Q01DX001 (ip), vehicle: water 101 % of control | dose: 6.0 mg/kg/injection, schedule: Q01DX001 (ip), vehicle: water 102 % of control | dose: 12.0 mg/kg/injection, schedule: Q01DX001 (ip), vehicle: water 107 % of control | dose: 18.75 mg/kg/injection, schedule: Q01DX001 (ip), vehicle: distilled water + Tween-80 104 % of control | dose: 24.0 mg/kg/injection, schedule: Q01DX001 (ip), vehicle: water 101 % of control | dose: 36.0 mg/kg/injection, schedule: Q01DX001 (ip), vehicle: water 102 % of control | dose: 37.5 mg/kg/injection, schedule: Q01DX001 (ip), vehicle: distilled water + Tween-80 107 % of control | dose: 75.0 mg/kg/injection, schedule: Q01DX001 (ip), vehicle: distilled water + Tween-80 107 % of control | dose: 150.0 mg/kg/injection, schedule: Q01DX001 (ip), vehicle: distilled water + Tween-80 116 % of control

COC(=O)c1n[nH]c(C(C)C)c1N=NN(C)C
inactive: dose: 37.5 mg/kg/injection, schedule: Q01DX009 (ip), vehicle: saline with Tween-80 106 % of control | dose: 75.0 mg/kg/injection, schedule: Q01DX009 (ip), vehicle: saline with Tween-80 121 % of control | dose: 150.0 mg/kg/injection, schedule: Q01DX009 (ip), vehicle: saline with Tween-80 92 % of control

Cc1ccc(S(=O)(=O)N(C)c2ccc(I)cc2F)cc1
inactive: [11] 104 % of control | [16] 95 % of control | [17] 101 % of control

COc1ccc(-c2cc3ccccc3c(=O)o2)cc1
inactive: [11] 98 % of control | [16] 98 % of control | [17] 91 % of control

Nc1ncnc2c1ncn2CCNC(=S)Nc1ccccc1
inactive: dose: 6.25 mg/kg/injection, schedule: Q01DX005 (ip), vehicle: other 88 % of control | dose: 12.5 mg/kg/injection, schedule: Q01DX005 (ip), vehicle: other 92 % of control | dose: 25.0 mg/kg/injection, schedule: Q01DX005 (ip), vehicle: other 88 % of control | dose: 50.0 mg/kg/injection, schedule: Q01DX005 (ip), vehicle: other 92 % of control | dose: 100.0 mg/kg/injection, schedule: Q01DX005 (ip), vehicle: other 92 % of control

CNC(=O)OC(C)CC(O)(C(F)(F)F)C(F)(F)F (stereo not drawn)
inactive: [9] 97 % of control | dose: 25.0 mg/kg/injection, schedule: Q04DX003 (ip), vehicle: saline with Tween-80 96 % of control | [10] 101 % of control | dose: 50.0 mg/kg/injection, schedule: Q04DX003 (ip), vehicle: saline with Tween-80 98 % of control | [11] 98 % of control | dose: 100.0 mg/kg/injection, schedule: Q04DX003 (ip), vehicle: Klucel (hydroxypropylcellulose) (HPC) 96 % of control | [7] 98 % of control

CC(C)(C)[Si](C)(C)Oc1ncc(F)c(O[Si](C)(C)C(C)(C)C)n1
inactive: dose: 5.0 mg/kg/injection, schedule: Q01DX009 (ip), vehicle: distilled water + Tween-80 123 % of control | dose: 10.0 mg/kg/injection, schedule: Q01DX009 (ip), vehicle: distilled water + Tween-80 113 % of control | dose: 20.0 mg/kg/injection, schedule: Q01DX009 (ip), vehicle: distilled water + Tween-80 123 % of control

CC(CCC(=O)O)C1CCC2C3CCC4CCCCC4(C)C3CCC12C (stereo not drawn)
inactive: dose: 100.0 mg/kg/injection, schedule: Q01DX001 (ip), vehicle: saline with Tween-80 98 % of control | dose: 200.0 mg/kg/injection, schedule: Q01DX001 (ip), vehicle: saline with Tween-80 93 % of control | dose: 400.0 mg/kg/injection, schedule: Q01DX001 (ip), vehicle: saline with Tween-80 92 % of control

COC(=O)CC(=O)OCC1C=CCC=C1
inactive: [11] 98 % of control | [16] 98 % of control | [17] 100 % of control

CC1(C)C2CCC1(C(=O)O)CC2
inactive: [10] 100 % of control | [11] 100 % of control | [7] 92 % of control | [16] 97 % of control | [8] 95 % of control

Clc1cc(Cl)cc(-c2cc(Cl)cc(Cl)c2)c1
inactive: dose: 100.0 mg/kg/injection, schedule: Q01DX001 (ip), vehicle: carboxymethylcellulose (CMC) 101 % of control | dose: 200.0 mg/kg/injection, schedule: Q01DX001 (ip), vehicle: carboxymethylcellulose (CMC) 92 % of control | dose: 400.0 mg/kg/injection, schedule: Q01DX001 (ip), vehicle: carboxymethylcellulose (CMC) 95 % of control
